Reference: patent US8877741B2, “Pyrrolidine derivatives, pharmaceutical compositions and uses thereof” (Boehringer Ingelheim International GmbH, priority 2013, dated 2014)

biological target: human ACC2 (Homo sapiens (Human), UniProt O00763); assay: ACC2 assay, spectrophotometric 384 well assay (NADH-linked kinetic method); type: biochemical; details: human ACC2 construct lacking the 128 N-terminal amino acids; coupled lactate dehydrogenase/pyruvate kinase reaction, 340 nm, 25° C.
Protocol: Spectrophotometric 384 Well Assay
Malonyl CoA formation by acetyl CoA carboxylases is stoichometrically linked to the consumption of ATP. ACC2 activity is measured in a NADH-linked kinetic method measuring ADP generated during the ACC reaction using a coupled lactate dehydrogenase/pyruvate kinase reaction.
For biological testing, a human ACC2 construct which lacks the 128 amino acids at the N-terminus for increased solubility (nt 385-6966 in Genbank entry AJ575592) is cloned. The protein is then expressed in insect cells using a baculoviral expression system. Protein purification is performed by anion exchange.
All compounds are dissolved in dimethyl sulfoxide (DMSO) to a concentration of 10 mM.
The enzymatic reaction is then started by addition of a mixture of NADH, acetyl Coenzyme A (both 2000 μM f.c.) and ATP (500 uM f.c.). The decrease of the optical density (slope S) is then determined at 25° C. at a wavelength of 340 nm over 15 minutes in a spectrophotometric reader.
Each assay microtiter plate contains wells with vehicle instead of compound as controls for the non-inhibited enzyme (100% CTL; ‘HIGH’) and wells without acetyl-CoA as controls for non-specific NADH degradation (0% CTL; ‘LOW’).
The slope S is used for calculation of % CTL=(S(compound)−S(‘LOW’))/(S(‘HIGH’)−S(‘LOW’))*100.
For IC50 value determination, the sample slope in the presence of the test compound after subtraction of the low controls (S(compound)−S(‘LOW’)) are used.
An IC50 value is derived from the compound slopes at different dosages after subtraction of the low controls (S(compound)−S(‘LOW’)) by non-linear regression curve fitting (equation y=(A+((B−A)/(1+((C/x)^D))))).

human ACC2, sequence (O00763 129-2458): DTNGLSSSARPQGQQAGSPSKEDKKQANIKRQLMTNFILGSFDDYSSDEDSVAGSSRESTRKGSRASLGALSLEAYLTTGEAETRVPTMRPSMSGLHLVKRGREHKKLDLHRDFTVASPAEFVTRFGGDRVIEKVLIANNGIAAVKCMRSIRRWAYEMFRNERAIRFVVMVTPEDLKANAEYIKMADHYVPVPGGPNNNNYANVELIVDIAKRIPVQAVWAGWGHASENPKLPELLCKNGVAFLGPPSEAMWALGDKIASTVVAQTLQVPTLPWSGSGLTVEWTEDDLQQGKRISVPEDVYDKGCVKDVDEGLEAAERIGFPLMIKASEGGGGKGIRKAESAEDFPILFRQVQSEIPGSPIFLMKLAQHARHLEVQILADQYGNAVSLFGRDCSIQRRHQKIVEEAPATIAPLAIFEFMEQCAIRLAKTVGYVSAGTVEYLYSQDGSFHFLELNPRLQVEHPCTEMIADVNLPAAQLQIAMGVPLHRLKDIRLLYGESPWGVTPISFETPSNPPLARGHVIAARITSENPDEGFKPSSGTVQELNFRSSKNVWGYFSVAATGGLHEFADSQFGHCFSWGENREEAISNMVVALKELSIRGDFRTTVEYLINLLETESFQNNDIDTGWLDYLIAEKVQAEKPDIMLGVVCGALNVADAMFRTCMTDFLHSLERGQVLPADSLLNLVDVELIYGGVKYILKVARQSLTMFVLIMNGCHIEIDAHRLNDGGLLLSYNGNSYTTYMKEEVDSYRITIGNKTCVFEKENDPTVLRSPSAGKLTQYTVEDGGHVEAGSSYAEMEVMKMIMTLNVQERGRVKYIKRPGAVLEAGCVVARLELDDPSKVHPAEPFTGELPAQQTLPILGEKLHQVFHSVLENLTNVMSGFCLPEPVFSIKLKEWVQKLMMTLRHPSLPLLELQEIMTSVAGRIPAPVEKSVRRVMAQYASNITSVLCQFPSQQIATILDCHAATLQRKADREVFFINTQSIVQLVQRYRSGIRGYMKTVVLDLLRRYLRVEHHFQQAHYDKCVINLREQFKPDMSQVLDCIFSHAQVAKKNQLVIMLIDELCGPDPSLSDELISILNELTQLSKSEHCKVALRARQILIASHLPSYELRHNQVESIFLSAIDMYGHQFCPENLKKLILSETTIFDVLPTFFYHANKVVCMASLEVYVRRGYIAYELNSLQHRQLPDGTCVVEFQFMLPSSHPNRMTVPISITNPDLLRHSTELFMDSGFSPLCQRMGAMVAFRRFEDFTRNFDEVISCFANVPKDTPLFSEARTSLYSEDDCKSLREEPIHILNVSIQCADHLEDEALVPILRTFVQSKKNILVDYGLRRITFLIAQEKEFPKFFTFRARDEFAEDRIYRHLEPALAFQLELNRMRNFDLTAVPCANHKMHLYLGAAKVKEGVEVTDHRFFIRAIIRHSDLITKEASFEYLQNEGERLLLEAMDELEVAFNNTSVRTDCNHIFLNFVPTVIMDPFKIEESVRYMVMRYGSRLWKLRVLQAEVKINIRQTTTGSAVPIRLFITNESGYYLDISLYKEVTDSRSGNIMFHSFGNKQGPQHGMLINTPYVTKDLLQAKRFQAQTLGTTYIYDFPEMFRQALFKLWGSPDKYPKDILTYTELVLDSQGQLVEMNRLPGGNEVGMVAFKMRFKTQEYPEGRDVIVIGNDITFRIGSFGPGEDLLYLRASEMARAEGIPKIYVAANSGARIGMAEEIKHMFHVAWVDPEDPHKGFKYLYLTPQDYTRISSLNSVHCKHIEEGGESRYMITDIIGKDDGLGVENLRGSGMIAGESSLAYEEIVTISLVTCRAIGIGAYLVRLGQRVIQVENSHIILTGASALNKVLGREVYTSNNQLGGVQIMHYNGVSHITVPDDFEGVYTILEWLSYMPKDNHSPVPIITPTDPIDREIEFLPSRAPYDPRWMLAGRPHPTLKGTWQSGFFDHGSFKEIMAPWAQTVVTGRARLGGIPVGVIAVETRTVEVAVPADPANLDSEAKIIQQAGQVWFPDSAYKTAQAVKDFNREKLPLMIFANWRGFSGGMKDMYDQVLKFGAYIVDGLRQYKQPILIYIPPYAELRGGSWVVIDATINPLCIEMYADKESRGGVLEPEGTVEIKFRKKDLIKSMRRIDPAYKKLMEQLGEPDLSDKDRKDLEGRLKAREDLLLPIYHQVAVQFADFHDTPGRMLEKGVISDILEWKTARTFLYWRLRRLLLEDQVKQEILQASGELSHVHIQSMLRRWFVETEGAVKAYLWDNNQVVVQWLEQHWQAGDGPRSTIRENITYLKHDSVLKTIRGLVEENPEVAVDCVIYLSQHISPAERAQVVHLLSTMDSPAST

Structure (SMILES) | IC50
CC(=O)N[C@@H](C)c1ccc(OC2CCN(c3ncc(OCCC4CC4)cc3F)C2)cc1 (some centres unmarked) [Example 1.34] | 434 nM
CC(=O)N[C@@H](C)c1ccc(OC2CCN(c3nc(C(F)(F)F)ccc3F)C2)cc1 (some centres unmarked) [Example 1.36] | 168 nM
CCCOc1ccc(N2CCC(Oc3ccc([C@H](C)NC(C)=O)cc3)C2)c(C)n1 (some centres unmarked) [Example 1.37] | 360 nM
CC(=O)N[C@@H](C)c1ccc(OC2CCN(c3cccc(C4CC4)n3)C2)cc1 (some centres unmarked) [Example 1.38] | 95 nM
CCCOc1cnc(N2CCC(Oc3ccc([C@H](C)NC(C)=O)cc3)C2)c(C)c1 (some centres unmarked) [Example 1.39] | 379 nM
CC(=O)N[C@@H](C)c1ccc(OC2CCN(c3ncc(OCC4CC4)cc3C)C2)cc1 (some centres unmarked) [Example 1.41] | 154 nM
CCCOc1ccc(N2CC[C@@H](Oc3ccc([C@H](C)NC(=O)c4sc(NC(C)=O)nc4C)cc3)C2)cn1 [Example 1.46] | 149 nM
CCOc1cc(N2CC[C@@H](Oc3ccc([C@H](C)NC(=O)c4sc(NC(C)=O)nc4C)cc3)C2)ccn1 [Example 1.47] | 120 nM
CCCOc1cnc(N2CC[C@@H](Oc3ccc([C@H](C)NC(=O)c4sc(NC(C)=O)nc4C)cc3)C2)c(F)c1 [Example 1.48] | 352 nM
CC(=O)Nc1nc(C)c(C(=O)N[C@@H](C)c2ccc(O[C@@H]3CCN(c4ccnc(OC(C)C)c4)C3)cc2)s1 [Example 1.49] | 179 nM
CCCOc1ccc(N2CC[C@@H](Oc3ccc([C@H](C)NC(=O)c4sc(NC(C)=O)nc4C)cc3)C2)nc1 [Example 1.50] | 170 nM
C[C@H](NC(=O)N(C)C)c1ccc(OC2CCN(c3ncc(OCC4CC4(F)F)cc3F)C2)cc1 (some centres unmarked) [Example 1.55] | 154 nM
COc1cccc(N2CCC(Oc3ccc([C@H](C)NC(C)=O)cc3)C2)n1 (some centres unmarked) [Example 1.57] | 678 nM
C[C@H](NC(=O)N(C)C)c1ccc(OC2CCN(c3ccc(F)c(C(F)(F)F)n3)C2)cc1 (some centres unmarked) [Example 1.58] | 55 nM
CC(=O)N[C@@H](C)c1ccc(OC2CCN(c3cccc(C(C)(C)C)n3)C2)cc1 (some centres unmarked) [Example 1.59] | 150 nM
CCc1cccc(N2CCC(Oc3ccc([C@H](C)NC(C)=O)cc3)C2)n1 (some centres unmarked) [Example 1.60] | 202 nM
CCOc1cccc(N2CCC(Oc3ccc([C@H](C)NC(C)=O)cc3)C2)n1 (some centres unmarked) [Example 1.62] | 802 nM
CC(=O)N[C@@H](C)c1ccc(OC2CCN(c3cccc(C(F)F)n3)C2)cc1 (some centres unmarked) [Example 1.64] | 154 nM

Structure (SMILES) | IC50
CC(=O)N[C@@H](C)c1ccc(OC2CCN(c3ccc(F)c(C)n3)C2)cc1 (some centres unmarked) [Example 1.65] | 107 nM
CC(=O)N[C@@H](C)c1ccc(OC2CCN(c3ncc(OC4CC4)cc3F)C2)cc1 (some centres unmarked) [Example 1.67] | 463 nM
CC(=O)N[C@@H](C)c1ccc(OC2CCN(c3ccnc(Oc4cccnc4)c3)C2)cc1 (some centres unmarked) [Example 1.68] | 354 nM
CC(=O)N[C@@H](C)c1ccc(OC2CCN(c3ccc(C4CC4)cn3)C2)cc1 (some centres unmarked) [Example 1.70] | 722 nM
CC(=O)N[C@@H](C)c1ccc(OC2CCN(c3cc(OCC(C)C)ncc3F)C2)cc1 (some centres unmarked) [Example 1.75] | 30 nM
CC(=O)N[C@@H](C)c1ccc(OC2CCN(c3cc(OCC4CC4(F)F)ncc3F)C2)cc1 (some centres unmarked) [Example 1.76] | 63 nM
CC(=O)N[C@@H](C)c1ccc(OC2CCN(c3ncc(OCC4CC4(F)F)cc3Cl)C2)cc1 (some centres unmarked) [Example 1.77] | 29 nM
CCOc1cnc(N2CCC(Oc3ccc([C@H](C)NC(C)=O)cc3)C2)c(Cl)c1 (some centres unmarked) [Example 1.78] | 198 nM
CC(=O)N[C@@H](C)c1ccc(OC2CCN(c3cccc(C4(S(C)(=O)=O)CC4)n3)C2)cc1 (some centres unmarked) [Example 1.79] | 950 nM
COc1cc(OCC2CC2)cnc1N1CCC(Oc2ccc([C@H](C)NC(C)=O)cc2)C1 (some centres unmarked) [Example 1.80] | 484 nM
COc1cc(OCC2CC2(F)F)cnc1N1CCC(Oc2ccc([C@H](C)NC(C)=O)cc2)C1 (some centres unmarked) [Example 1.81] | 425 nM
C[C@H](NC(=O)c1cncs1)c1ccc(O[C@@H]2CCN(c3ccc(OCCCF)cn3)C2)cc1 [Example 1.82] | 110 nM
CSc1ccc(N2CCC(Oc3ccc([C@H](C)NC(C)=O)cc3)C2)cn1 (some centres unmarked) [Example 1.83] | 2990 nM
CC(=O)N[C@@H](C)c1ccc(OC2CCN(c3cccc(C4CCCC4)n3)C2)cc1 (some centres unmarked) [Example 1.84] | 115 nM
Cc1cccc(N2CC[C@@H](Oc3ccc([C@H](C)NC(=O)c4cncs4)cc3)C2)n1 [Example 1.85] | 107 nM
CC(=O)N[C@@H](C)c1ccc(OC2CCN(c3cccc(C4CCC4)n3)C2)cc1 (some centres unmarked) [Example 1.86] | 89 nM
CC(=O)N[C@@H](C)c1ccc(OC2CCN(c3ccc(OCC(C)(C)F)cn3)C2)cc1 (some centres unmarked) [Example 1.87] | 677 nM

Next, values leading:

IC50 | Structure (SMILES)
504 nM | CC(=O)N[C@@H](C)c1ccc(OC2CCN(c3ncc(OCC(F)(F)F)cc3F)C2)cc1 (some centres unmarked) [Example 1.33]
414 nM | CC(=O)N[C@@H](C)c1ccc(OC2CCN(c3ccnc(OCC4CC4)c3)C2)cc1 (some centres unmarked) [Example 1.35]
775 nM | CC(=O)N[C@@H](C)c1ccc(OC2CCN(c3cnc(OCC4CC4(F)F)cc3C)C2)cc1 (some centres unmarked) [Example 1.40]
219 nM | CC(=O)N[C@@H](C)c1ccc(OC2CCN(c3ccc(OCC4CC4(F)F)nc3)C2)cc1 (some centres unmarked) [Example 1.42]
59 nM | CC(=O)Nc1nc(C)c(C(=O)N[C@@H](C)c2ccc(O[C@@H]3CCN(c4ccnc(OCC5CC5)c4)C3)cc2)s1 [Example 1.43]
256 nM | CC(=O)N[C@@H](C)c1ccc(OC2CCN(c3nc(C)ccc3F)C2)cc1 (some centres unmarked) [Example 1.44]
64 nM | CC(=O)Nc1nc(C)c(C(=O)N[C@@H](C)c2ccc(O[C@@H]3CCN(c4cccc(C(F)(F)F)n4)C3)cc2)s1 [Example 1.45]
401 nM | CCCOc1cc(C)c(N2CCC(Oc3ccc([C@H](C)NC(C)=O)cc3)C2)cn1 (some centres unmarked) [Example 1.51]
474 nM | CCOc1cnc(N2CCC(Oc3ccc([C@H](C)NC(C)=O)cc3)C2)c(C)c1 (some centres unmarked) [Example 1.52]
85 nM | C[C@H](NC(=O)N(C)C)c1ccc(OC2CCN(c3ccnc(OCC4CC4)c3)C2)cc1 (some centres unmarked) [Example 1.53]
140 nM | C[C@H](NC(=O)N(C)C)c1ccc(OC2CCN(c3ccc(OCC4CC4(F)F)cn3)C2)cc1 (some centres unmarked) [Example 1.54]
585 nM | Cc1cnc(OCC2CC2)cc1N1CCC(Oc2ccc([C@H](C)NC(=O)N(C)C)cc2)C1 (some centres unmarked) [Example 1.56]
55 nM | CC(=O)N[C@@H](C)c1ccc(OC2CCN(c3cccc(C(C)C)n3)C2)cc1 (some centres unmarked) [Example 1.63]
384 nM | CC(=O)N[C@@H](C)c1ccc(OC2CCN(c3ccc(OC4CC4)cn3)C2)cc1 (some centres unmarked) [Example 1.66]
387 nM | CSc1ccc(N2CCC(Oc3ccc([C@H](C)NC(C)=O)cc3)C2)nc1 (some centres unmarked) [Example 1.69]
88 nM | CCCOc1cnc(N2CCC(Oc3ccc([C@H](C)NC(C)=O)cc3)C2)c(Cl)c1 (some centres unmarked) [Example 1.71]
70 nM | CCCOc1cc(N2CCC(Oc3ccc([C@H](C)NC(C)=O)cc3)C2)c(F)cn1 (some centres unmarked) [Example 1.72]
59 nM | CC(=O)N[C@@H](C)c1ccc(OC2CCN(c3cc(OCC4CC4)ncc3F)C2)cc1 (some centres unmarked) [Example 1.73]
100 nM | CC(=O)N[C@@H](C)c1ccc(OC2CCN(c3cc(OC(C)C)ncc3F)C2)cc1 (some centres unmarked) [Example 1.74]
423 nM | CC(=O)N[C@@H](C)c1ccc(OC2CCN(c3ccc(OCCCF)nc3)C2)cc1 (some centres unmarked) [Example 1.88]
278 nM | CC(=O)N[C@@H](C)c1ccc(OC2CCN(c3cc(OCC4CC4(F)F)ncc3C)C2)cc1 (some centres unmarked) [Example 1.89]
